Measured values taken from patent US11208386B2, “Inhibitors of protein arginine deiminases (PADs) and methods of preparation and use thereof” (University of Massachusetts, priority 2016, dated 2021).

Columns and labels:
Assay type in all cases: biochemical
PAD2 = biological target: T1, PAD2 (Homo sapiens, UniProt Q9Y2J8); assay: Inactivation kinetics, PAD2; details: for kinact/KI: a: single kobs determined, b: from a linear fit, other footnotes: from kinact and KI; for Fold PAD2 Selectivity: kinact/KI relative to least inhibited isozyme (1.0)
T1 construct: made in house
Protocol: (§1) Inactivation kinetic parameters were determined by incubating PAD1, 2, or 4 (2.0 μM) or PAD3 (5.0 μM) in a pre-warmed (10 min; 37° C.) inactivation mixture (50 mM HEPES, 10 mM CaCl2, and 2 mM DTT, pH 7.6, with a final volume of 60 μL) containing various concentrations of inhibitor. Aliquots were removed at various time points and added to a pre-warmed (10 min, 37° C.) reaction mixture (50 mM HEPES, 50 mM NaCl, 10 mM CaC2, 2 mM DTT, and 10 mM BAEE or 10 mM BAA in the case of PAD3; pH 7.6). After 15 min, reactions were quenched in liquid nitrogen and citrulline production quantified using the COLDER assay. […] In Vitro Labeling of PADs with “Clickable” Probes BB-F-Yne (5u), BB-Cl-Yne (5v) and BIFYne (5w)

PAD4 = biological target: T2, PAD4 (Homo sapiens, UniProt Q9UM07); assay: Inactivation kinetics, PAD4; details: for kinact/KI: a: single kobs determined, b: from a linear fit; for Fold PAD4 Selectivity: kinact/KI relative to least inhibited isozyme (1.0)
T2 construct: made in house
Protocol: as §1

PAD1 = biological target: T3, PAD1 (Homo sapiens, UniProt Q9ULC6); assay: Inactivation kinetics, PAD1; details: for kinact/KI: a: single kobs determined, b: from a linear fit; for Fold PAD1 Selectivity: kinact/KI relative to least inhibited isozyme (1.0)
T3 construct: made in house
T3 sequence (Q9ULC6 1-663): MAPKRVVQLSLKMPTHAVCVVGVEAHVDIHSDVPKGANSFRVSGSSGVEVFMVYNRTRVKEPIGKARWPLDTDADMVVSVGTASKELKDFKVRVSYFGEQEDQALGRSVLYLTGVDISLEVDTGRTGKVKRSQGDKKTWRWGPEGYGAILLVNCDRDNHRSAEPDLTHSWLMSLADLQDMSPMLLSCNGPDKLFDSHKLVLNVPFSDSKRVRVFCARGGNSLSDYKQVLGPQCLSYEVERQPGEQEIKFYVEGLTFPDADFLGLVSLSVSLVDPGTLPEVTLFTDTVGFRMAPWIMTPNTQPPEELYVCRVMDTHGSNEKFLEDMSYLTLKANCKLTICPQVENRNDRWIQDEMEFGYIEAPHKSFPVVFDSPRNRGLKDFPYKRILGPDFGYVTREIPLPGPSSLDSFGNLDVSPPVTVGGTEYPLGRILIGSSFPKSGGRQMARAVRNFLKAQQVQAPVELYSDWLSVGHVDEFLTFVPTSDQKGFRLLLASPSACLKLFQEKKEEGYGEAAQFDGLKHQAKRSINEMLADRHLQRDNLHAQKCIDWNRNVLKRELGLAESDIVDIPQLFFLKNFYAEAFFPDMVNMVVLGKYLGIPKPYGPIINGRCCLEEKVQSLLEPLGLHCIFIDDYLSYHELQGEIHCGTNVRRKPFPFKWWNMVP
Protocol: as §1

PAD3 = biological target: T4, PAD3 (Homo sapiens, UniProt Q9ULW8); assay: Inactivation kinetics, PAD3; details: for kinact/KI: a: single kobs determined; for Fold PAD3 Selectivity: kinact/KI relative to least inhibited isozyme (1.0)
T4 construct: made in house
T4 sequence (Q9ULW8 1-664): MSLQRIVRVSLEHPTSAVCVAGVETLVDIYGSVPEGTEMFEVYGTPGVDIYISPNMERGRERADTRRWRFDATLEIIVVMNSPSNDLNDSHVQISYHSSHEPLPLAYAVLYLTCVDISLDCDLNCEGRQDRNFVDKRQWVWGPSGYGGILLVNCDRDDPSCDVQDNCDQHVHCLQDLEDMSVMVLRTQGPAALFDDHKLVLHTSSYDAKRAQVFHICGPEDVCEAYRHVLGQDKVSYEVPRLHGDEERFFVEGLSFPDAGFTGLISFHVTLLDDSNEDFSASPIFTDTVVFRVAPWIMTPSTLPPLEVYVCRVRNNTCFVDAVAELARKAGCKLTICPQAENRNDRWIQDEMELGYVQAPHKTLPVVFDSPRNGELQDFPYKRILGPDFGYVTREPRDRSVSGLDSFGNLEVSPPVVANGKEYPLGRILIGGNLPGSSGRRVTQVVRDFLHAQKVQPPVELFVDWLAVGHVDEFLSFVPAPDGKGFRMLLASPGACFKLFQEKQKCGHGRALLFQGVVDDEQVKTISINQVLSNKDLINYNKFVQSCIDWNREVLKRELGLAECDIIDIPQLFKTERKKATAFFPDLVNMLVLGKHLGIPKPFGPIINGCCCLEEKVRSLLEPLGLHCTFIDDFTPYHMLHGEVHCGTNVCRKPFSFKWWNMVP
Protocol: as §1

T1 sequence (Q9Y2J8 whole entry): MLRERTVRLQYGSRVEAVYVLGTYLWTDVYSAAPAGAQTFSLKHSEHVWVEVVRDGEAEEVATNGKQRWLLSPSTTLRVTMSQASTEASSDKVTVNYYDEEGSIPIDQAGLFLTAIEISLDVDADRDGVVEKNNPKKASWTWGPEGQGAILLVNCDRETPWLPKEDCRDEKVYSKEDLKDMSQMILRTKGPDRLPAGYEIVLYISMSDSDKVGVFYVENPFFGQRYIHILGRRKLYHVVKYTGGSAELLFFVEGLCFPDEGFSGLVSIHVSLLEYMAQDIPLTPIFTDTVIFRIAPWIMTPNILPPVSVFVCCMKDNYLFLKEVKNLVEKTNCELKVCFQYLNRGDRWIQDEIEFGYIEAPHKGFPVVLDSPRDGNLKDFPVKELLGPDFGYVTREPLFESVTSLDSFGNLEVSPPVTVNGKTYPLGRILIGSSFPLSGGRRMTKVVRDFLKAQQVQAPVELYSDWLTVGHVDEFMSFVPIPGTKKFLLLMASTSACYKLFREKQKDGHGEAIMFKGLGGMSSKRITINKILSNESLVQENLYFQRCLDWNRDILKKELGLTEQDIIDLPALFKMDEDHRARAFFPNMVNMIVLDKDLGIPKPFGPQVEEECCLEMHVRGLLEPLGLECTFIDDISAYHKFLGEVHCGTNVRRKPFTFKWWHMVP
T2 sequence (Q9UM07 whole entry): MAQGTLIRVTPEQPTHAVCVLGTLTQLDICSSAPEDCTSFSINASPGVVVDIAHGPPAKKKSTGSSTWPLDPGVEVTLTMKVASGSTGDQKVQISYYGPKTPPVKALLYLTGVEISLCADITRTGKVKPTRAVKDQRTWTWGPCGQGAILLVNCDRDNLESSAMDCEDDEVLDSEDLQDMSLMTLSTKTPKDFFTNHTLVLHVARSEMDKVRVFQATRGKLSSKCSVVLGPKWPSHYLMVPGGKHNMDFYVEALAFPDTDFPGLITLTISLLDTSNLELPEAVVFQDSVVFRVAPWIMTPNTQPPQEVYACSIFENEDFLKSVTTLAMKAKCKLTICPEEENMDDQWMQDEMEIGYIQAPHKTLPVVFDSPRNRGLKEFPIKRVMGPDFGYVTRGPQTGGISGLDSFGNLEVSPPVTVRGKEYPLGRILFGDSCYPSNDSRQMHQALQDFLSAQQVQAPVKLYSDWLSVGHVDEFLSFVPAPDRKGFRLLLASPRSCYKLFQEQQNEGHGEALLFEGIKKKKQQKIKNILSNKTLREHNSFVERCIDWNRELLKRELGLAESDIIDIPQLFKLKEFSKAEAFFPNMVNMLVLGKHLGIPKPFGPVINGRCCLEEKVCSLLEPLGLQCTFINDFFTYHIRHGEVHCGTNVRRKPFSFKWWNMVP

SMILES: COc1cccc2c1nc([C@H](CCCNC(=N)CF)NC(=O)c1cccc3c1C(=O)N(C)C3)n2C [8a′]
- Ki (PAD2; PAD2, table footnote): 12.8 µM
- kinact (PAD2; PAD2, table footnote): 0.0455 s⁻¹
- kinact/KI (PAD2): 3540 M⁻¹ s⁻¹
- Fold PAD2 Selectivity (PAD2): 106 fold
- kinact/KI (PAD4): 38.3 M⁻¹ s⁻¹
- Fold PAD4 Selectivity (PAD4): 1.1 fold
- kinact/KI (PAD1): 996 M⁻¹ s⁻¹
- Fold PAD1 Selectivity (PAD1): 30 fold
- kinact/KI (PAD3): 33.5 M⁻¹ s⁻¹
- Fold PAD3 Selectivity (PAD3): 1.0 fold

SMILES: COc1cccc2c1nc([C@H](CCCNC(=N)CCl)NC(=O)c1cccc3c1C(=O)N(C)C3)n2C [8b′]
- kinact/KI (PAD2): 1160 M⁻¹ s⁻¹
- Fold PAD2 Selectivity (PAD2): 11 fold
- kinact/KI (PAD4): 106 M⁻¹ s⁻¹
- Fold PAD4 Selectivity (PAD4): 1.0 fold
- kinact/KI (PAD1): 719 M⁻¹ s⁻¹
- Fold PAD1 Selectivity (PAD1): 6.8 fold
- kinact/KI (PAD3): 228 M⁻¹ s⁻¹
- Fold PAD3 Selectivity (PAD3): 2.2 fold

SMILES: N=C(CF)NCCC[C@H](NC(=O)c1ccccc1)c1nc2ccccc2[nH]1 [Compound 5a, N1-benzoyl-N5-(2-fluoro-1-iminoethyl)-1-(1H-benzo[d]imidazol-2-yl)-L-ornithine]
- kinact/KI (PAD2): 7.92 M⁻¹ s⁻¹
- Fold PAD2 Selectivity (PAD2): 1.0 fold
- kinact/KI (PAD4): 142 M⁻¹ s⁻¹
- Fold PAD4 Selectivity (PAD4): 18 fold
- kinact/KI (PAD1): 75 M⁻¹ s⁻¹
- Fold PAD1 Selectivity (PAD1): 9.5 fold
- kinact/KI (PAD3): 15 M⁻¹ s⁻¹
- Fold PAD3 Selectivity (PAD3): 1.9 fold

SMILES: N=C(CCl)NCCC[C@H](NC(=O)c1ccccc1)c1nc2ccccc2[nH]1 [Compound 5b, N1-benzoyl-N5-(2-chloro-1-iminoethyl)-1-(1H-benzo[d]imidazol-2-yl)-L-ornithine]
- kinact/KI (PAD2): 8.33 M⁻¹ s⁻¹
- Fold PAD2 Selectivity (PAD2): 1.0 fold
- kinact/KI (PAD4): 254 M⁻¹ s⁻¹
- Fold PAD4 Selectivity (PAD4): 31 fold
- kinact/KI (PAD1): 132 M⁻¹ s⁻¹
- Fold PAD1 Selectivity (PAD1): 16 fold
- kinact/KI (PAD3): 163 M⁻¹ s⁻¹
- Fold PAD3 Selectivity (PAD3): 20 fold

SMILES: N=C(CF)NCCC[C@H](NC(=O)c1ccc2ccccc2c1)c1nc2ccccc2[nH]1 [Compound 5c]
- kinact/KI (PAD2): 13.1 M⁻¹ s⁻¹
- Fold PAD2 Selectivity (PAD2): 1.0 fold
- kinact/KI (PAD4): 108 M⁻¹ s⁻¹
- Fold PAD4 Selectivity (PAD4): 8.3 fold
- kinact/KI (PAD1): 25 M⁻¹ s⁻¹
- Fold PAD1 Selectivity (PAD1): 1.9 fold
- kinact/KI (PAD3): 46.7 M⁻¹ s⁻¹
- Fold PAD3 Selectivity (PAD3): 3.6 fold

SMILES: N=C(CCl)NCCC[C@H](NC(=O)c1ccc2ccccc2c1)c1nc2ccccc2[nH]1 [Compound 5d]
- kinact/KI (PAD2): 71.2 M⁻¹ s⁻¹
- Fold PAD2 Selectivity (PAD2): 1.5 fold
- kinact/KI (PAD4): 167 M⁻¹ s⁻¹
- Fold PAD4 Selectivity (PAD4): 3.6 fold
- kinact/KI (PAD1): 46.7 M⁻¹ s⁻¹
- Fold PAD1 Selectivity (PAD1): 1.0 fold
- kinact/KI (PAD3): 165 M⁻¹ s⁻¹
- Fold PAD3 Selectivity (PAD3): 3.5 fold

SMILES: N=C(CF)NCCC[C@H](NC(=O)c1ccc(-c2ccccc2)cc1)c1nc2ccccc2[nH]1 [Compound 5e, N1-[1,4′-Phenyl]benzol-N5-(2-fluoro-1-iminoethyl)-1-(1H-benzo[d]imidazol-2-yl)-L-ornithine]
- kinact/KI (PAD2): 20 M⁻¹ s⁻¹
- Fold PAD2 Selectivity (PAD2): 1.3 fold
- kinact/KI (PAD4): 62.5 M⁻¹ s⁻¹
- Fold PAD4 Selectivity (PAD4): 4.2 fold
- kinact/KI (PAD1): 15 M⁻¹ s⁻¹
- Fold PAD1 Selectivity (PAD1): 1.0 fold
- kinact/KI (PAD3): 56.7 M⁻¹ s⁻¹
- Fold PAD3 Selectivity (PAD3): 3.8 fold

SMILES: Cn1c([C@H](CCCNC(=N)CF)NC(=O)c2ccc(-c3ccccc3)cc2)nc2ccccc21 [Compound 5g, N1-[1,4′-Phenyl]benzoyl-N5-(2-fluoro-1-iminoethyl)-1-(1-methyl-benzo[d]imidazol-2-yl)-L-ornithine]
- kinact/KI (PAD2): 13.7 M⁻¹ s⁻¹
- Fold PAD2 Selectivity (PAD2): 1.8 fold
- kinact/KI (PAD4): 7.5 M⁻¹ s⁻¹
- Fold PAD4 Selectivity (PAD4): 1.0 fold
- kinact/KI (PAD1): 21.3 M⁻¹ s⁻¹
- Fold PAD1 Selectivity (PAD1): 2.8 fold
- kinact/KI (PAD3): 26.7 M⁻¹ s⁻¹
- Fold PAD3 Selectivity (PAD3): 3.6 fold

SMILES: Cn1c([C@H](CCCNC(=N)CCl)NC(=O)c2ccc(-c3ccccc3)cc2)nc2ccccc21 [Compound 5h, N1-[1,4′-Phenyl]benzol-N5-(2-chloro-1-iminoethyl)-1-(1-methyl-benzo[d]imidazol-2-yl)-L-ornithine]
- kinact/KI (PAD2): 40.5 M⁻¹ s⁻¹
- Fold PAD2 Selectivity (PAD2): 1.0 fold
- kinact/KI (PAD4): 51.8 M⁻¹ s⁻¹
- Fold PAD4 Selectivity (PAD4): 1.3 fold
- kinact/KI (PAD1): 112 M⁻¹ s⁻¹
- Fold PAD1 Selectivity (PAD1): 2.8 fold
- kinact/KI (PAD3): 100 M⁻¹ s⁻¹
- Fold PAD3 Selectivity (PAD3): 2.5 fold
